From patent publication US9670223B2, “Compounds with super-aspirin effects” (SOLVOTRIN THERAPEUTICS LTD., priority 2011, dated 2017)
Where two headings read alike, the source gives them in different places.

Experiments:
[1] = test system: platelet esterases (pNPA hydrolysis in WP); type: biochemical, human; conditions: for effect on NPA/PNA activity of WP or lysed platelets: 10-100 μM
Protocol: WP, PRP, PPP or lysed WP and 50 mM TrisHCl pH7.4 were incubated on a 96 well plate at 37° C. for 30 min. PNA at a final concentration of 3 mM was added to the plate and the change in absorbance at 405 nm was measured over a period of 10 min.
NPA hydrolyse activity could be due to CE (EC 3.1.1.1), BuChE, acetylcholinesterase (AChE, EC 3.1.1.7) or paraoxanase/arylesterase (PON, EC 3.1.8.1). To identify which esterases were involved in the hydrolysis of PNA, various inhibitors were incubated with the WP, PRP, PPP or lysed WP and 50 mM TrisHCl pH7.4 for 30 min at 37° C. prior to the addition of the PNA and the measurement of the change in absorbance at 405 nm. Physostigmine (100 μM), a cholinesterase inhibitor was used to check if BuChE/AChE played a role in the hydrolysis of PNA. […] PMSF (10-100 μM) was used to determine if serine proteases played any part in the hydrolysis of PNA by platelets. EDTA a calcium chelator was used to investigate the role played by PON esterases. BNPP a CE inhibitor of was used to investigate if carboxylesterases played a role in hydrolysis of PNA by platelets.

[2] = test system: platelet rich plasma (PRP); assay: Collagen-induced platelet aggregation in platelet rich plasma (light aggregometry); type: cell-based, human; conditions: for inhibition of collagen induced aggregation by hydrolysis products: 10-300 μM in PRP, collagen 5 μg/ml
Protocol: (§1) PRP and WP (2.5×10^8 platelets ml^−1) were prepared from blood. Briefly 36 ml whole blood was collected into 4 ml of 3.15% sodium citrate; this was centrifuged at 250 ¥g for 20 min (with gentle acceleration and deceleration). At this point PRP, which had separated from white blood cells and red blood cells, was gently removed. When WP were required this PRP was centrifuged at 700 g for 10 min (with gentle acceleration and deceleration) in the presence of prostacyclin. The platelet-poor plasma (PPP) was removed and the platelet pellet was washed three times with Tyrode's buffer, before being re-suspended in Tyrode's buffer to a concentration of 2.5 ¥108 platelets/ml.
(§2) Platelet aggregation was measured by light aggregometry. […] Aggregation was initiated by the addition of agonists, and monitored by Aggro-Link software for at least 6 min.
(§3) To study the aggregatory potency of ADP, the concentration-response (0.3-10 μM) curves were generated. Collagen at different concentrations (2-5 μg/ml) was also used to induce platelet aggregation. Submaximal concentrations of agonists, i.e. the concentrations that gave approximately 95% of the maximal aggregation were used to study the effects of inhibitors of aggregation. Aspirin and aspirin prodrugs was incubated for various intervals prior to the addition of aggregating agents.
(§4) Eserine (in DMSO, 10 μM, giving a final concentration≦0.25% DMSO, which pilot studies had determined not to affect platelet aggregation) was preincubated with PRP or WP for 5 min in the aggregometer with stirring at 900 r.p.m. before the addition of test compounds (ST0701-05), which were incubated in PRP or WP for a further 10 min prior to the addition of an agonist (10 μM ADP or 5 μg/ml Collagen) to induce platelet aggregation.

[3] = Plasma pharmacokinetics of aspirin and metabolites after single oral gavage dose; type: in vivo, cynomolgus monkey
Protocol: The objectives of this study are to determine the comparative clinical efficacy as determined by TxB2 suppression with single oral gavage dose administration of Aspirin, ST0702 and ST0702 Micronised to the cynomolgus monkey. Aspirin pharmacokinetics were compared using Area Under the Curve (AUC) calculations.
The objectives of this study are to determine the comparative pharmacokinetics of ST0702 at 9.6 and 4.8 mg/Kg with single oral gavage dose administration to the cynomolgus monkey and to determine dose-response effects.
Although the half life of the Isosorbide 2 salicylate 5 nicotinate metabolite is very short in-vitro, we investigated the serum taken from Cynomologus Monkeys participating in Study 2B above. The comparative pharmacokinetics of Isosorbide 2 salicylate 5 nicotinate from Monkeys receiving a single oral gavage dose of micronized ST0702 at 9.6 and 4.8 mg/Kg were evaluated. The concentrations of the breakdown products of ISANA were quantified using LCMS methods.
Animals are acclimated to the oral gavage procedure for at least 3 days prior to the commencement of dose formulation administration. Deionized water is administered by oral gavage using a disposable catheter attached to a plastic syringe at a dose volume of 5 mL/kg. Animals are treated at approximately the same time on each dosing day. Dose formulations are administered by oral gavage using a disposable catheter attached to a plastic syringe. Following each daily dose, the gavage tube is rinsed with 6 mL of Ultra Pure water into the animal's stomach. Each animal will be dosed with a clean gavage tube on each dosing occasion. The dosing volume is 10 mL/kg. Each actual volume administered will be based on the most recent practical body weight of each animal. The dose formulations will be stirred continuously during dose administration.
Samples are mixed gently and placed on crushed wet ice until centrifugation, which are carried out as soon as practical. The samples are centrifuged for approximately 10 minutes in a refrigerated centrifuge (approximately 4° C.) at 2700 rpm. The resultant plasma are separated, transferred to uniquely labeled clear polypropylene tubes, and frozen immediately over dry ice and transferred to a freezer set to maintain −80° C. The plasma samples are transferred to the bioanalytical laboratory at the Testing Facility.
Plasma samples are analyzed for concentration of Aspirin, Salicylic Acid and Nicotinic Acid using a qualified analytical procedure. Analysis are performed by LC MS/MS under Analytical Procedure. Data collection is performed using Analyst from AB Sciex. […]

TxB2 = TxB2 suppression after single oral gavage dose; type: in vivo, cynomolgus monkey; conditions: for TxB2 suppression (TxB2 levels as percentage of baseline), in words: Phase 2A, single oral gavage, ST0702 9.6 mg/kg, aspirin 4.2 mg/kg, 1 and 24 hours post dosing; for TxB2 suppression, % complete: Phase 2B, at 24 hours
[4] = test system: platelet rich plasma (PRP); assay: ADP-induced platelet aggregation in PRP; type: cell-based, human; conditions: ODQ 10 μM, ADP 10 μM, PRP
Protocol: as §1, §2, §3, §4
1H-[1,2,4]Oxadiazolo[4,3-a]quinoxalin-1-one (ODQ, dissolved in 100% DMSO, used at a final concentration of 10 μM, which gave a final concentration not more than 0.25% DMSO) was preincubated with PRP or WP for 5 min in the aggregometer with stirring at 900 r.p.m. before the addition of test compounds (ST0701-05), which were incubated in PRP or WP for a further 10 min prior to the addition of an agonist (10 μM ADP or 5 μg/ml collagen) to induce platelet aggregation.
Eserine (10 μM) was incubated with PRP for 5 min in the aggregometer with stirring at 900 r.p.m. before the addition of test compound ST0702 salicylate (500 μM), which was incubated in PRP for a further 10 min prior to the addition of the agonist ADP (10 μM) to induce platelet aggregation.

washed platelets (WP) = assay: Collagen-induced platelet aggregation in washed platelets (light aggregometry); type: cell-based, human; conditions: WP, collagen 2 μg/ml, PMSF up to 100 μM
Protocol: as §1, §2, §3
To study the involvement of plasma BuChE in the activation of ST0701, purified BuChE (3 U/ml) was incubated with WP for 5 min in the aggregometer with stirring at 900 r.p.m. before the addition of the test compounds ST0701 which was incubated with the WP for a further 10 min, prior to the addition of collagen (5 ug/ml).
as §4
Phenylmethylsulphonylfluoride (PMSF) 20, 50 and 100 μM dissolved in EtOH (<0.2% EtOH, which pilot studies had determined not to affect platelet aggregation) was preincubated in WP in the aggregometer for 5 min with stirring at 900 r.p.m. before the addition of test compound ST0702 to the WP, which was further incubated for 10 min prior to the addition of collagen (2 μg/ml) to induce platelet aggregation.

59M cells [5] = assay: Tumour cell-induced platelet aggregation (TCIPA), static conditions, 59M; type: cell-based, human; conditions: static, WP, 300 and 500 μM, 59M 1×10^3/ml
Text: ISAS meanwhile is hydrolysed to aspirin and salicylic acid. […] The structure of platelet-tumor cell aggregates was studied using phase-contrast microscopy (Alonso-Escolano et al., 2004; Jurasz et al., 2001). […] Aliquots of each sample were then taken for phase-contrast microscopy examination using an Olympus CKX41 microscope (Olympus America Inc., […].). Photomicrographs were captured using a digital camera and MicroFire (Olympus America Inc.) software (Alonso-Escolano et al., 2004; Jurasz et al., 2001).

P-selectin = assay: Flow cytometry of platelet P-selectin during TCIPA induced by 59M cells; type: cell-based, human; conditions: 300 μM
59M cells [6] = assay: Flow-mediated TCIPA using an ultrasound standing wave trap; type: cell-based, human; conditions: 500 μM, 59M cell cluster
Text: The ultrasound trap had three essential features: a transducer (Ferroperm, Kvistgard, Denmark) in a housing of radial symmetry, an aqueous phase and a reflector that provided optical access from above. The trap was driven with a function generator (Hewlett Packard 33120A, UK). Microscopic observation occurred with a fast, high-resolution XM10 camera (Soft Imaging System, SIS, GmbH) mounted on an Olympus BX51M reflection epi-fluorescence microscope. Images were captured by a standard PC equipped with the Cell-D image acquisition software (Soft Imaging System, SIS, GmbH).
The experimental procedure was as follows: 59M cells were introduced into the trap, the acoustic field (2.13 MHz, 0.85 MPa) was initiated and cell clusters were allowed to form. Clusters remained levitated in suspension for 10 min. Washed platelets (2.5×10^8/ml) were introduced into the trap at a flow rate of 3 μl/min. Perfusion of washed platelets around the cluster proceeded following initial adhesion of platelets to the periphery of the cluster.
To study the effect of aspirin and aspirin prodrugs in TCIPA, washed platelets were pre-incubated for 10 min at room temperature with the inhibitors: aspirin, nicotinate, ISAS, ISMNA, ortho and meta (all at a concentration of 500 μM), prior to their introduction into the ultrasound trap. […] The cell cluster-platelet aggregate remained under microscopic observation for further 10 min (the upper time limit established in the current study) under continuous flow conditions. Further experiments were performed with ST0702 salicylate (500 μM).

O=[N+]([O-])c1ccc(OP(=O)(O)Oc2ccc([N+](=O)[O-])cc2)cc1 [BNPP, bis-p-nitrophylphosphate]
effect on NPA/PNA activity of WP or lysed platelets [1]: no significant effect

O=C(O)CN(CCN(CC(=O)O)CC(=O)O)CC(=O)O [EDTA, ethylenediaminetetraacetic acid]
effect on NPA activity of WP [1]: no effect

CC(C)NP(=O)(NC(C)C)OP(=O)(NC(C)C)NC(C)C [Iso-OMPA, tetraisopropylpyrophosphoramide]
effect on NPA/PNA activity of WP or lysed platelets [1]: no effect

O[C@@H]1CO[C@H]2[C@@H]1OC[C@@H]2O [Isosorbide]
inhibition of collagen induced aggregation by hydrolysis products [2]: None of the hydrolysis products significantly inhibited aggregation

CC(=O)Oc1ccccc1C(=O)OC1COC2C(OC(=O)c3cccnc3)COC12 (stereo not shown) [Micronized ST0702, isosorbide-2-aspirinate-5-nicotinate]
% of aspirin AUC ([3]; Phase 2B, Micronised ST0702 equimolar dose vs aspirin 4.2 mg/Kg): 62%
expected aspirin delivered in-vivo ([3]; Studies 2A and 2B together, relative to equivalent aspirin): 58-62%
TxB2 suppression (TxB2 levels as percentage of baseline), in words (TxB2): no difference between aspirin and micronized ST0702
TxB2 suppression (TxB2 levels as percentage of baseline), in words (TxB2; listed as micronised ISANA): as effective as equimolar doses of aspirin
TxB2 suppression, % complete (TxB2; 4.8 mg/Kg oral): 47%
TxB2 suppression, % complete (TxB2; 9.6 mg/Kg oral): 70%

O=c1onc2cnc3ccccc3n12 [ODQ, 1H-[1,2,4]oxadiazolo[4,3-a]quinoxalin-1-one, reference compound]
inhibition of ADP induced aggregation when incubated alone [4]: some inhibition

O=S(=O)(F)Cc1ccccc1 [PMSF, phenylmethylsulphonyl fluoride]
inhibition of NPA activity in WP ([1]; at 10 μM): 50%
inhibition of NPA activity in WP ([1]; at 100 μM): almost completely inhibited
effect of PMSF alone on collagen-induced aggregation (washed platelets (WP)): no significant effect

O=C(O[C@H]1CO[C@H]2[C@@H]1OC[C@H]2OC(=O)c1ccccc1O)c1ccccc1O [isosorbide-2,5-disalicylate]
inhibition of collagen induced aggregation by hydrolysis products [2]: None of the hydrolysis products significantly inhibited aggregation
attenuation of aspirin's inhibitory effect on co-incubation ([2]; co-incubated with aspirin, 50-500 μM, non-significant trend): ≤ 10%

O=C(O[C@@H]1CO[C@H]2[C@H]1OC[C@@H]2O)c1ccccc1O [isosorbide-5-salicylate]
inhibition of collagen induced aggregation by hydrolysis products [2]: None of the hydrolysis products significantly inhibited aggregation

CC(=O)Oc1ccccc1C(=O)O[C@H]1CO[C@H]2[C@@H]1OC[C@H]2OC(=O)c1cccc(CO[N+](=O)[O-])c1 [metanitrate]
inhibition of TCIPA induced by 59M (59M cells [5]): inhibited
inhibition of TCIPA induced by 59M (59M cells [5]; listed as Meta): able to inhibit
59M-mediated increase in platelet surface P-selectin (P-selectin): significantly (P<0.05, n=4) reduce
inhibition of TCIPA under flow conditions (platelet-tumour cell disruption) (59M cells [6]): did not interfere

O=C(O)c1ccccc1O [salicylic acid]
inhibition of collagen induced aggregation by hydrolysis products [2]: None of the hydrolysis products significantly inhibited aggregation
